Laboratory results from patent publication US9296741B2, “Bromodomain inhibitors” (priority 2012, dated 2016).

Columns and labels:
[1] = test system: breast cancer cell line MX-1; assay: MX-1 cell line proliferation assay; type: cell-based, human; conditions: Homo sapiens, MX1, 72 h; MX-1 cells, 3-day proliferation, Cell Titer Glo; read-out: Cellular proliferation: EC50
[2] = Human liver microsome stability assay; type: in vitro ADME; conditions: both sexes, human, microsomes, pH 7.4
[3] = Rat liver microsome stability assay; type: in vitro ADME; conditions: rat liver microsomes (male Sprague-Dawley), 0.5 μM test compound, 0.25 mg/mL microsomal protein, pH 7.4, 37° C.; read-out: Stability in rat liver microsomes (t1/2 in minutes)
[4] = Mouse liver microsome stability assay; type: in vitro ADME; conditions: male, CD1, mouse, microsomes, pH 7.4
[5] = test system: LPS induced IL-6 production; assay: LPS (lipopolysaccharide) induced IL-6 production mouse assay; type: in vivo; conditions: Mus musculus, read-out: Inhibition of LPS induced IL-6 production in Mice, % inhibition at 3 mg/kg; 3 mg/kg oral, 1 h before LPS; serum IL-6 2 h after LPS
[6] = target: human BRD4 first bromodomain (BDI_K57-E168) (Homo sapiens (Human), UniProt O60885); assay: TR-FRET bromodomain binding assay, BRD4 first bromodomain
[7] = target: human BRD4 second bromodomain (BDII_E352-M457) (Homo sapiens (Human), UniProt O60885); assay: TR-FRET bromodomain binding assay, BRD4 second bromodomain

## Cn1cc(-c2cc(CS(C)(=O)=O)ccc2Oc2ccc(F)cc2F)c2cc[nH]c2c1=O [Example 287, 4-{2-(2,4-difluorophenoxy)-5-[(methylsulfonyl)methyl]phenyl}-6-methyl-1,6-dihydro-7H-pyrrolo[2,3-c]pyridin-7-one]
[1]
  EC50: 19.5 nM
[2]
  half-life at 0.5 μM: > 2 h
[3]
  half-life at 0.5 μM: 1.93 h
[4]
  half-life at 0.5 μM: 0.483 h
[5]
  inhibition in vivo at 3 mg/kg: 73%

## Cn1cc(-c2cc(S(N)(=O)=O)cnc2OC2CCOC2)c2cc[nH]c2c1=O (stereo not shown) [Example 86, 5-(6-methyl-7-oxo-6,7-dihydro-1H-pyrrolo[2,3-c]pyridin-4-yl)-6-(tetrahydrofuran-3-yloxy)pyridine-3-sulfonamide]
[1]
  EC50: 182 nM
[2]
  half-life at 0.5 μM: > 2 h
[3]
  half-life at 0.5 μM: > 2 h
[4]
  half-life at 0.5 μM: 0.717 h
[5]
  inhibition in vivo at 3 mg/kg: 55%

## Cn1cc(-c2cc(S(N)(=O)=O)ccc2OCC2CC2)c2cc[nH]c2c1=O [Example 249, 4-(cyclopropylmethoxy)-3-(6-methyl-7-oxo-6,7-dihydro-1H-pyrrolo[2,3-c]pyridin-4-yl)benzenesulfonamide]
[1]
  EC50: 14.4 nM
[2]
  half-life at 0.5 μM: > 2 h
[3]
  half-life at 0.5 μM: > 2 h
[4]
  half-life at 0.5 μM: > 2 h
[5]
  inhibition in vivo at 3 mg/kg: 59%

## Cn1cc(-c2cc(NS(C)(=O)=O)ccc2Oc2ccc(F)cc2)c2cc[nH]c2c1=O [Example 26, N-[4-(4-fluorophenoxy)-3-(6-methyl-7-oxo-6,7-dihydro-1H-pyrrolo[2,3-c]pyridin-4-yl)phenyl]methanesulfonamide]
[6]
  Ki: 2.1 nM
[7]
  Ki: 3.3 nM
[1]
  EC50: 17.1 nM
[5]
  inhibition in vivo at 3 mg/kg: 60%

## Cn1cc(-c2cc(NS(C)(=O)=O)cc(F)c2Oc2ccccc2)c2cc[nH]c2c1=O [Example 24, N-[3-fluoro-5-(6-methyl-7-oxo-6,7-dihydro-1H-pyrrolo[2,3-c]pyridin-4-yl)-4-phenoxyphenyl]methanesulfonamide]
[1]
  EC50: 12.6 nM
[2]
  half-life at 0.5 μM: 0.483 h
[3]
  half-life at 0.5 μM: 0.0833 h
[4]
  half-life at 0.5 μM: 0.917 h
[5]
  inhibition in vivo at 3 mg/kg: 58%

## Cn1cc(-c2cc(S(C)(=O)=O)ccc2Oc2ccccc2F)c2cc[nH]c2c1=O [Example 149, 4-[2-(2-fluorophenoxy)-5-(methylsulfonyl)phenyl]-6-methyl-1,6-dihydro-7H-pyrrolo[2,3-c]pyridin-7-one]
[6]
  Ki: 11.5 nM
[7]
  Ki: 3 nM
[1]
  EC50: 29.7 nM
[5]
  inhibition in vivo at 3 mg/kg: 69%

## Cn1cc(-c2cc(S(C)(=O)=O)ccc2Oc2cccc(F)c2)c2cc[nH]c2c1=O [Example 150, 4-[2-(3-fluorophenoxy)-5-(methylsulfonyl)phenyl]-6-methyl-1,6-dihydro-7H-pyrrolo[2,3-c]pyridin-7-one]
[6]
  Ki: 9.7 nM
[7]
  Ki: 4.2 nM
[1]
  EC50: 66.5 nM
[5]
  inhibition in vivo at 3 mg/kg: 54%

## CCS(=O)(=O)c1ccc(O[C@H]2CC[C@@H](O)CC2)c(-c2cn(C)c(=O)c3[nH]ccc23)c1 [Example 202, 4-{5-(ethylsulfonyl)-2-[(cis-4-hydroxycyclohexyl)oxy]phenyl}-6-methyl-1,6-dihydro-7H-pyrrolo[2,3-c]pyridin-7-one]
[6]
  Ki: 1.7 nM
[7]
  Ki: 1.4 nM
[1]
  EC50: 22.8 nM
[3]
  half-life at 0.5 μM: > 2 h
[5]
  inhibition in vivo at 3 mg/kg: 68%

## CCS(=O)(=O)c1ccc(O[C@H]2CC[C@H](O)CC2)c(-c2cn(C)c(=O)c3[nH]ccc23)c1 [Example 203, 4-{5-(ethylsulfonyl)-2-[(trans-4-hydroxycyclohexyl)oxy]phenyl}-6-methyl-1,6-dihydro-7H-pyrrolo[2,3-c]pyridine-7-one]
[6]
  Ki: 0.69 nM
[7]
  Ki: 0.75 nM
[1]
  EC50: 4.7 nM
[3]
  half-life at 0.5 μM: > 2 h
[5]
  inhibition in vivo at 3 mg/kg: 78%

## Cn1cc(-c2cc(S(C)(=O)=O)ccc2Oc2ccc(F)cc2)c2cc[nH]c2c1=O [Example 151, 4-[2-(4-fluorophenoxy)-5-(methylsulfonyl)phenyl]-6-methyl-1,6-dihydro-7H-pyrrolo[2,3-c]pyridin-7-one]
[6]
  Ki: 10.7 nM
[7]
  Ki: 8.1 nM
[1]
  EC50: 54.9 nM
[5]
  inhibition in vivo at 3 mg/kg: 66%
